# Data published in patent US8088758B2, “17β-hydroxysteroid dehydrogenase type I inhibitors” (Abbott Products GmbH, priority 2003, dated 2012).
# Molecular target: T1, recombinant human 17β-hydroxysteroid dehydrogenase type 1 (Homo sapiens, UniProt P14061)
# T1 construct: made in house; host or cells: Sf9 insect cells (baculovirus, Bac to Bac Expression System)
# T1 sequence (P14061 1-328): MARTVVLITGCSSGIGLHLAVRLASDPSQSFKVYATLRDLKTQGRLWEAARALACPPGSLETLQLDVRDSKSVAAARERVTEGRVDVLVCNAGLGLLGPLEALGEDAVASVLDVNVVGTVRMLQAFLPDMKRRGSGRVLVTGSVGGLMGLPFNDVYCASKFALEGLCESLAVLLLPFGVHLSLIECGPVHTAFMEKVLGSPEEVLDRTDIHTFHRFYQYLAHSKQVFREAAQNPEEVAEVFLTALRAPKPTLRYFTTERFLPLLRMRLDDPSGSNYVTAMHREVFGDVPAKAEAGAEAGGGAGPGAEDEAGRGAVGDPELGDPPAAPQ
# Experiment: Inhibition of recombinant human 17β-hydroxysteroid dehydrogenase type 1 (conversion of 3H-estrone to estradiol, HPLC)
# Assay type: biochemical
# Details: 30 nM 3H-estrone, 1 mM NADPH, 30 min at RT; for inhibition at 0.1 µM: inhibitor 100 nM, read-out: Inhibition of rec. 17β-HSD1 (% inhibition), 100 nM; for inhibition at 1 µM: inhibitor 1 μm, read-out: Inhibition of rec. 17β-HSD1 (% inhibition), 1 μm
# Experimental: 1. Inhibition of the 17β-hydroxysteroid Dehydrogenase Type 1 Enzyme
# 17β-HSD1 Purification: Recombinant baculovirus was generated by the “Bac to Bac Expression System” (Invitrogen). Recombinant bacmid was transfected to Sf9 insect cells using “Cellfectin Reagent” (Invitrogen). 60 h later cells were harvested; the microsomal fraction was isolated as described by Puranen et al. 1994. Aliquots were stored frozen until determination of enzymatic activity.
# Assay—Inhibition of Recombinant Human 17β-hydroxysteroid Dehydrogenase Type 1:
# Recombinant protein (0.1 μg/ml) was incubated in 20 mM KH2PO4 pH 7.4 with 30 nM 3H-estrone and 1 mM NADPH for 30 min at RT, in the presence of potential inhibitors at concentrations of 1 μM or 0.1 μM. Inhibitor stock solutions were prepared in DMSO. Final concentration of DMSO was adjusted to 1% in all samples. The enzyme reaction was stopped by addition of 10% trichloroacetic acid (final concentration). Samples were centrifuged in a microtiter plate at 4000 rpm for 10 min. Supernatants were applied to reverse phase HPLC on a Waters Symmetry C18 column, equipped with a Waters Sentry Guard column. Isocratic HPLC runs were performed at RT at a flow rate of 1 ml/min of acetonitrile:water 48:52 as running solvent. Radioactivity was monitored in the eluate by a Packard Flow Scintillation Analyzer. Total radioactivity for estrone and estradiol were determined in each sample and percent conversion of estrone to estradiol was calculated according to the following formula:
# Percent inhibition was calculated as follows: % inhibition=100−% conversion
SMILES,inhibition at 0.1 µM,inhibition at 1 µM
COc1ccc(S(=O)(=O)NC[C@H]2CC(=O)[C@@]3(C)CC[C@@H]4c5ccc(O)cc5CC[C@H]4[C@H]23)cc1 [Example 668],52.4%,88.3%
Cc1cccc(S(=O)(=O)NC[C@H]2CC(=O)[C@@]3(C)CC[C@@H]4c5ccc(O)cc5CC[C@H]4[C@H]23)c1 [Example 677],36.9%,83.7%
C[C@]12CC[C@@H]3c4ccc(O)cc4CC[C@H]3[C@@H]1[C@@H](CNS(=O)(=O)c1cc(S(=O)(=O)c3ccccc3)cs1)CC2=O [Example 679],26.5%,74.6%
CN(C[C@H]1CC(=O)[C@@]2(C)CC[C@@H]3c4ccc(O)cc4CC[C@H]3[C@H]12)S(=O)(=O)c1ccc2ccccc2c1 [Example 681],39.7%,87.1%
CN(C[C@H]1CC(=O)[C@@]2(C)CC[C@@H]3c4ccc(O)cc4CC[C@H]3[C@H]12)S(=O)(=O)c1cccs1 [Example 682],49.2%,91.8%
CN(C[C@H]1CC(=O)[C@@]2(C)CC[C@@H]3c4ccc(O)cc4CC[C@H]3[C@H]12)S(=O)(=O)c1ccccc1 [Example 684],31.3%,86.9%
CN(C[C@H]1CC(=O)[C@@]2(C)CC[C@@H]3c4ccc(O)cc4CC[C@H]3[C@H]12)S(=O)(=O)c1ccc(F)cc1 [Example 685],36%,85.6%
COc1ccc(S(=O)(=O)N(C)C[C@H]2CC(=O)[C@@]3(C)CC[C@@H]4c5ccc(O)cc5CC[C@H]4[C@H]23)cc1 [Example 688],47.4%,91.3%
CN(C[C@H]1CC(=O)[C@@]2(C)CC[C@@H]3c4ccc(O)cc4CC[C@H]3[C@H]12)S(=O)(=O)c1cccc(Cl)c1 [Example 693],25.8%,80.1%
Cc1cccc(S(=O)(=O)N(C)C[C@H]2CC(=O)[C@@]3(C)CC[C@@H]4c5ccc(O)cc5CC[C@H]4[C@H]23)c1 [Example 694],34.6%,87.3%
CN(C[C@H]1CC(=O)[C@@]2(C)CC[C@@H]3c4ccc(O)cc4CC[C@H]3[C@H]12)S(=O)(=O)c1cc(S(=O)(=O)c2ccccc2)cs1 [Example 696],35.7%,80.5%
COc1ccc2c(c1)CC[C@H]1[C@@H]3[C@H](CCCOC(=O)Nc4ccc(Cl)cc4Cl)CC(=O)[C@@]3(C)CC[C@H]21 [Example 744],37.1%,53.9%
COc1ccc2c(c1)CC[C@H]1[C@@H]3[C@H](CCCOC(=O)Nc4ccc(C(F)(F)F)cc4)CC(=O)[C@@]3(C)CC[C@H]21 [Example 745],29.9%,53.5%
COc1ccc2c(c1)CC[C@H]1[C@@H]3[C@H](CCCOC(=O)Nc4ccc5c(c4)OCO5)CC(=O)[C@@]3(C)CC[C@H]21 [Example 748],48.7%,90.6%
COc1ccc2c(c1)CC[C@H]1[C@@H]3[C@H](CCCOC(=O)Nc4ccc(Cl)c(Cl)c4)CC(=O)[C@@]3(C)CC[C@H]21 [Example 749],29.8%,57.3%
COc1ccc2c(c1)CC[C@H]1[C@@H]3[C@H](CCCCOC(=O)Nc4cccc(F)c4)CC(=O)[C@@]3(C)CC[C@H]21 [Example 751],27.7%,67.7%
COc1ccc2c(c1)CC[C@H]1[C@@H]3[C@H](CCCCOC(=O)Nc4cccc([N+](=O)[O-])c4)CC(=O)[C@@]3(C)CC[C@H]21 [Example 754],29.3%,65.1%
"C[C@]12CC[C@@H]3c4ccc(O)cc4CC[C@H]3[C@@H]1[C@H](CCCO)CC2=O [Example 823, 3-Hydroxy-15β-(3-Hydroxypropyl)-estra-1,3,5(10)-trien-17-one]",76.1%,97%
